# Where “and” joins values, the source holds several entries; their conditions need not be identical. Identical values can stand only once.
# Columns and labels:
# [1] = tested on: SARS-CoV-2 ancestral PV10734 strain; experiment: Yield reduction assay in Calu-3 cells, SARS-CoV-2 ancestral PV10734 strain; type: cell-based; details: PDSTP 20 and 4 μM, day 3 post-infection, p < 0.0001
# [2] = Reproductive toxicity: embryotoxicity study; type: in vivo, white laboratory rats; details: 10% solution, daily topical application, days 6 to 19 of gestation
# Source text: (§1) PDSTP doses tested: 10% solution
# (§2) Test subjects: white laboratory rats of both sexes
# Pregnant rats from 6 to 19 days of gestation received daily topical application of PDSTP on 5% of the body surface area (3x5 cm area).
# [3] = Allergenicity study, guinea pigs; type: in vivo; details: intradermal sensitizing dose 40 µg into the ear; epicutaneous and conjunctival testing
# [4] = Reproductive toxicity: generative function of sexually mature animals; type: in vivo, white laboratory rats; details: 10% solution topically on 5% of body surface area for 25 days
# Source text: as §1, §2
# The drug was applied topically on 5% of body surface area (3x5 cm area) for 25 days.
# [5] = tested on: SARS-COV-2 PV10734; experiment: Penetration assay in Vero cells; type: cell-based; details: at higher concentrations
# Method: A penetration assay was performed with small modifications according to the method reported earlier ([Chang et al., 2012]). A 24-well tissue culture plate was seeded with Vero cells (3 × 10^5 cells/well), which were then incubated overnight at 37°C in a 5% CO2 atmosphere. The cells were pre-chilled on ice for 1 h, and the medium was removed. The cells were infected with 100 PFU of SARS-CoV-2 PV10734 on ice for 2 h. The medium containing the unbound virus was then removed. Various concentrations of PDSTP (100–0.8 μM) in the medium were added, and the cells were incubated at 37°C for 1 h to trigger endocytosis of the virus. The infected cells were then treated with alkaline PBS (pH 11) for 1 min to inactivate viruses that had not penetrated the cells. Acidic PBS (pH 3) was then added to neutralize the mixture. The neutralized medium was removed; the cells were overlaid with methylcellulose in media and then were incubated at 37°C. After the 72-h incubation period, the cells were stained, and the plaques were determined by counting.
# [6] = tested on: Salmonella typhimurium strains TA 97, TA 98 and TA 100; experiment: Ames test (Salmonella/microsome test); details: 0.1 to 1000 µg/ cup; MA+ and MA-
# Method: PDSTP doses tested: 0.1 to 1000 µg/ cup.
# Test subjects: Salmonella typhimurium strains TA 97, TA 98 and TA 100.
# Metabolic activation: MA+ and MA-.
# [7] = Chronic toxicity, intranasal administration, rabbits; type: in vivo; details: repeated administration for 14 days, 10-200 mg/kg
# [8] = Acute toxicity, intragastric administration, rats; type: in vivo; details: maximum dose 5000 mg/kg
# [9] = tested on: herpes simplex epithelial keratitis; design: method as in Alimbarova et al., 2022; details: rabbit model; ref Alimbarova et al., 2022; cited from earlier work
# [10] = tested on: SARS-CoV-2 clinical isolate 35245; experiment: Microtetrazolium (MTT) test, SARS-CoV-2 35245; type: cell-based; details: Severe acute respiratory syndrome coronavirus 2, read-out: Antiviral activity IC50 against coronaviruses, SARS-CoV-2 clinical isolate 35245, MTT
# Method: The compound’s activity against OC43 and SARS-CoV-235245 was based on the inhibition of virus-induced cytopathogenicity in acutely infected Vero-76 cells (MOI 0.01). Briefly, Vero-76 cells were seeded in 96-well plates at a density of 3 × 10^4 cells/well and incubated in a growth medium in a 5% CO2 at 37°C overnight. Cell monolayers were then infected with 50 μL of the appropriate viral dilution in maintenance medium [D-MEM and MEM-Earl (Gibco, Thermo Fisher Scientific, MA United States) with L-glutamine (Gibco), 1 mM sodium pyruvate (Gibco), and 0.025 g/L kanamycin (Gibco), supplemented with 0.5% inactivated FBS (Harlan Sera-Lab, Loughborough, United Kingdom), respectively] to give an MOI of 0.01, without or with serial dilutions of test samples. After 6 (HCoV-OC43) and 4/5 (SARS-CoV-2) days of incubation at 37°C, the extent of cell viability was quantified using a tetrazolium-based colorimetric method, in which the reduction of 3-(4,5-dimethylthiazol-2-yl)-2,5-diphenyl-tetrazolium bromide (MTT) by mitochondrial dehydrogenases to a soluble colored formazan was measured using a spectrophotometer (Infinity 200, Tecan Austria GmbH, Austria) at 570 nm, as previously reported ([Sanna et al., 2020]).
# [11] = Acute toxicity, intravenous administration, rats; details: both sexes, rat, in vivo, Rats (M/F)
# [12] = Acute toxicity, topical application, rats; type: in vivo; details: for LD50: acute toxicity, topical application
# [13] = Chronic toxicity, intranasal administration, rats; type: in vivo; details: repeated administration for 14 days, 10-200 mg/kg
# [14] = Acute toxicity, intraperitoneal administration, mice; details: both sexes, mouse, in vivo, ip, Mice (M/F)
# [15] = tested on: SARS-CoV-2 B.1.1 GR MM1/2020/Aug-21 clinical isolate; experiment: Golden Syrian hamster model of SARS-CoV-2-induced pneumonia; type: in vivo; details: for Body weight: day 0
# [16] = 10 mg/kg, severity score 0 to 6
smiles,measurement,setting,value
"Cc1nc(N2CC[N+]3(CC2)CC[N+]2(CCNCC2)CC3)c([N+](=O)[O-])c(N2CC[N+]3(CC2)CC[N+]2(CCNCC2)CC3)n1.Cl.Cl.O.O.O.O.O.O.O.O.O.[Cl-].[Cl-].[Cl-].[Cl-] [PDSTP, 3,3′-(2-methyl-5-nitropyrimidine-4,6-diyl)bis-3,12-diaza-6,9-diazonia-dispiro[5.2.5.2]hexadecane tetrachloride dihydrochloride nonahydrate]",Reduction of viral titer,[1],~100 fold
same,Embryotoxic effect,[2],no adverse embryotoxic effect
same,Sensitizing properties,[3],no sensitizing properties
same,Effect on generative function of sexually mature animals,[4],no pathological effect
same,"Viral inhibition, penetration experiment",[5],only modest viral inhibition
same,Mutagenic activity (Ames test),[6],no mutagenic activity
same,Toxic effect on organs and systems,[7],toxic effect on organs and systems was not revealed
same,Clinical signs,[8],"piloerection and diarrhea, deterioration of hair coat, decreased motor activity, and decreased body weight"
same,Mortality,[8],The death of animals was not recorded
same,Reduction of mean progression and corneal lesions,[9],comparable to traditional aciclovir
same,IC50,[10],14.5 ± 3.3 µM
same,LD50,[11],140 mg/kg
same,LD50,[12],greater than 31.25 mg/cm^2
same,Toxicity and local irritant effects on skin,[12]; maximum regulated amount applied to the skin,No manifestations of toxicity and local irritant effects were observed
same,LD50,"[12]; rat, in vivo, topical or ocular, 2500 mg/kg, read-out: LD50",> 2500 mg/kg
same,Toxic effect on organs and systems,[13],toxic effect on organs and systems was not revealed
same,LD50,[14],192 mg/kg
same,Animals with completely reduced SARS-CoV-2-induced lung pathology,[15]; 10 mg/kg,three
same,Body weight,[15]; 10 mg/kg,"100,7±0,3 gram"
same,"Animals with lung severity score ""mild""",[15]; [16],two
same,"Animals with lung severity score ""none""",[15]; [16],three out of six
same,Animals with completely reduced SARS-CoV-2-induced lung pathology,[15]; 20 mg/kg,two
same,Body weight,[15]; 20 mg/kg,"94,1±0,4 gram"
same,Body weight,[15]; 40 mg/kg,"96,7±0,3 gram"
same,Alveolar edema (histopathology),[15]; 10 or 20 mg/kg,moderate
same,Reduction in lung viral titer vs negative control,"[15]; […], not statistically significant",1.5 log10
same,Reduction of viral RNA copy levels in lung tissue vs vehicle,"[15]; […], statistically non-significant",2.2 log10
same,Core body temperature,[15]; all animal groups,within the normal range
same,Mortality,[15]; all animal groups,None of the animals died
same,Body weight loss,"[15]; hamster, in vivo",no more than 10%
same,Reduction of viral RNA copy levels in lung tissue vs vehicle,"[15]; hamster, in vivo",1.6 log10 and 2.0 log10
same,Viral RNA copy levels in turbinate tissue,"[15]; hamster, in vivo",statistically significantly diminished

# — PMC11931052, “Efficacy of dispirotripiperazine PDSTP in a golden Syrian hamster model of SARS-CoV-2 infection” (Frontiers in Microbiology, 2025)
